US20250213587A1, “ITK INHIBITORS FOR INCREASING TH1 CELL ACTIVITY” (Corvus Pharmaceuticals, Inc., priority 2022, published 2025)

Experiments:
[1] = test system: CD4+ T cells, Sézary cells; test: Cytokine production by CD4+ cells and Sézary cells stimulated with anti-CD3/28/2; assay type: cell-based, human
Excerpt: This is significant because cytokines secreted by Th2 cells are involved in inflammation, allergy and autoimmunity. […] There was no effect on Th1-dependent IFNg, except at high concentrations. Inhibition of Th2 cells blocks production of various inflammatory cytokines, including IL-4, IL-5, IL-9, IL-13, and IL17a.

[2] = test system: peripheral T cell lymphoma; test: Anti-tumor activity in human clinical trials (T cell lymphoma); assay type: in vivo
Excerpt: Each lane represents a patient with the length indicating time on treatment. A treatment cycle is 21 days and then the cycle is repeated until the patient experiences tumor progression or unacceptable toxicity.

[3] = target: Lck (Homo sapiens, UniProt P06239); test: Human kinome profiling at 1.0 μM, Lck; assay type: biochemical; settings: read-out: percent control, Lck
Lck, sequence (P06239 whole entry): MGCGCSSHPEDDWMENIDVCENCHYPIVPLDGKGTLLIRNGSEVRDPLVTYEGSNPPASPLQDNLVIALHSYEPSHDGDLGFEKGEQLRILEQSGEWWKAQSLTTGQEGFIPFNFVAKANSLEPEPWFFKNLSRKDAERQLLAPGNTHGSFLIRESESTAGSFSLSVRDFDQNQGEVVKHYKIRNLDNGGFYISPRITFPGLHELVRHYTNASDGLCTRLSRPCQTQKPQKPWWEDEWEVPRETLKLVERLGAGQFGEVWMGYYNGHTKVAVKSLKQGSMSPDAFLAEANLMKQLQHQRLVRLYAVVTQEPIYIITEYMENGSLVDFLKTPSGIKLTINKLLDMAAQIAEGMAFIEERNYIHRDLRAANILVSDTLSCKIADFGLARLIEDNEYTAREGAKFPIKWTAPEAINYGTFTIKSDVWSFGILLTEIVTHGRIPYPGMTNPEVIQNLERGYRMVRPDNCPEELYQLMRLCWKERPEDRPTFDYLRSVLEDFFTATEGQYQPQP

[4] = target: T1, ITK (Homo sapiens, UniProt Q08881); test: Human kinome profiling at 1.0 μM, ITK; assay type: biochemical; design: purchased Invitrogen
T1 sequence (Q08881 1-620): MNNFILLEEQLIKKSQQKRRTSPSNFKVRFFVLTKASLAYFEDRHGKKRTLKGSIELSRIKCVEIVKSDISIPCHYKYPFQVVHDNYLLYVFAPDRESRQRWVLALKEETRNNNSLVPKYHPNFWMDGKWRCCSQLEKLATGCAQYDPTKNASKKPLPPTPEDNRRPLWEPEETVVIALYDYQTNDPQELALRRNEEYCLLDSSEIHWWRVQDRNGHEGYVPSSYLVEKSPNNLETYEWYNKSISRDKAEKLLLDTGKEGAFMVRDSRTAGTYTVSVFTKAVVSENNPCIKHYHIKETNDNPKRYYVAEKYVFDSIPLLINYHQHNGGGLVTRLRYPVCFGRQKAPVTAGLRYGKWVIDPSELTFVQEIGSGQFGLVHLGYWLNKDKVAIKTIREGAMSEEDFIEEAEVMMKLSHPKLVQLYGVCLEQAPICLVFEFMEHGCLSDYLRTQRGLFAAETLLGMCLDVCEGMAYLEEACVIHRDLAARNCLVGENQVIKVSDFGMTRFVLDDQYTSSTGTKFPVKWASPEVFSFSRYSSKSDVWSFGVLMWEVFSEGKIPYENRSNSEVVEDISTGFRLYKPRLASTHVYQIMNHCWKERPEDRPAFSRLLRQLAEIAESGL

[5] = Mouse pharmacokinetics after oral dosing; assay type: in vivo
[6] = test system: human kinome; test: Human kinome profiling at 1.0 μM; assay type: biochemical
[7] = target: T1, ITK; test: Jump dilution assay; assay type: binding; design: purchased Invitrogen; settings: for reversibility of ITK inhibition on dilution: dilution into competitive probe
Description: The assay format is similar to the Competitive Tracer-binding Assay and relies on the reversible binding of tracer 236 to recombinant tagged human ITK. […] The mixture was then filtered through a desalting column (Thermo Scientific, Zeba Spin Desalting Column, 40K MWCO) to remove unbound inhibitor. The assay was initiated immediately after the desalting step by diluting the eluate containing the inhibited kinase complex 50-fold into a solution of anti-tag antibody (2 nM final) and excess tracer 236 (40 nM final). Dissociation of inhibitor and binding of tracer was monitored immediately after assay initiation using an EnVision plate reader (excitation 340 nm, dual emission at 665 nm and 615 nm). Reagents including GST-tagged recombinant human ITK, Kinase tracer 236, Lanthascreen Eu-Anti-GST antibody and kinase buffer A were purchased from ThermoFisher Scientific/Invitrogen. Each data point represents the mean of technical triplicates. Equation 3 was fitted to the BMS-509744 data to obtain the rate constant using GraphPad Prism from which the half-life was calculated.

[8] = target: Cys442Ala ITK (Homo sapiens, UniProt Q08881, C442A); test: Inhibition of Cys442Ala ITK mutant; assay type: biochemical; settings: similar conditions
Cys442Ala ITK, sequence (Q08881 whole entry C442A): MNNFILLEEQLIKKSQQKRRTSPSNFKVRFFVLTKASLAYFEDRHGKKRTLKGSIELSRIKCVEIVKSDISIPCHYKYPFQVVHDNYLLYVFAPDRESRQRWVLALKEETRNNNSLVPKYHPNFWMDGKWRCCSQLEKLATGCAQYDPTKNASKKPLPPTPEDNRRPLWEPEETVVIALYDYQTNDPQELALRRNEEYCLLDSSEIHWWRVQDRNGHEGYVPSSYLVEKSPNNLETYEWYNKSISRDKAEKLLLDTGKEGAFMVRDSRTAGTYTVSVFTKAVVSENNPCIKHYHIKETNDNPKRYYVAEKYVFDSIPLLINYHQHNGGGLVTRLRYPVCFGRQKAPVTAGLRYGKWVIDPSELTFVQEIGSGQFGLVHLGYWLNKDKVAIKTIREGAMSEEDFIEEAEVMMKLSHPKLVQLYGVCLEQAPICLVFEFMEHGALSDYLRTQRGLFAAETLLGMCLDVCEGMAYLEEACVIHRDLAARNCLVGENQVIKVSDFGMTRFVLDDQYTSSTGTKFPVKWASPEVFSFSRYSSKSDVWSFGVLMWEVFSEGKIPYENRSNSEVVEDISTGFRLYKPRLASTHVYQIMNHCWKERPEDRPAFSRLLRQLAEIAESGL
Description: Two biochemical assays of kinase activity were employed. […] In the Lanthascreen assay each kinase (1.0 nM) was incubated with compound for 120 minutes at 22° C. in a buffer composed of 50 mM HEPES (pH 7.5), 10 mM MgCl2, 1 mM EGTA, and 0.01% Brij 35. The kinase reaction was initiated by the addition of ATP (50 μM final) and fluorescein-poly-Glu-Tyr peptide (200 nM final). The reaction was quenched after 60 minutes at 22° C., and phospho-peptide product detected by the addition of EDTA (10 mM final) and terbium PY20 antibody (2 nM final). The phospho-peptide product was measured by time-resolved fluorescence resonance energy transfer (TR FRET) between the terbium of the antibody and fluorescein of the phospho-peptide using an EnVision plate reader (PerkinElmer, Waltham, MA) equipped to detect the TR-FRET signal (excitation 320 nm, dual emission at 495 nm and 520 nm). All reagents including recombinant human kinases, fluorescein-poly-Glu-Tyr peptide, terbium PY20 antibody, and kinase buffer A were purchased from Invitrogen.
Inhibition of kinase activity was measured by construction of a concentration response curve of the inhibitor. […] The response reading was normalized according to equation 1 and plotted against the Log base 10 transformed values of the molar concentration of inhibitor. The IC50 value was obtained by fitting equation 2 to the data. […]

[9] = test system: PLCγ1 phosphorylation; test: Inhibition of PLCγ1 phosphorylation in Jurkat cells; assay type: cell-based, human; settings: anti-CD3
Description: Jurkat human acute T cell leukemia cell line (ATCC, TIB-152) was cultured in RPMI 1640 medium supplemented with Penicillin-Streptomycin (Gibco) and 10% fetal bovine serum (FBS) at 37° C. and 5% CO2. […] The cell pellet was resuspended in NP40 lysis buffer (Invitrogen) containing protease and phosphatase inhibitors cocktail (Cell Signaling Technology), incubated for 30 minutes on ice, and centrifuged at 15, 000×g for 10 minutes. The lysate supernatant from each condition containing 50 μg of total protein was resolved on an 8% Bis-Tris gel (Invitrogen) under reducing condition and transferred onto a nitrocellulose membrane (Invitrogen) using an iBlot2 gel transfer device. Unless specified otherwise, all reagents described above were purchased from Thermo Fisher Scientific. Membranes were blocked for 1 hour at room temperature and incubated overnight at 4° C. with primary antibodies (1:1000 dilution) in Odyssey blocking buffer (LI-COR) with 0.2% Tween 20. Membranes were washed 4 times (5 min each) in Tris-buffered saline, 0.10% Tween 20 and incubated with IRDye 800CW Anti-Rabbit IgG and IRDye 700CW Anti-Mouse IgG (LI-COR) secondary antibodies (1:20,000 dilution) for 1 hour at room temperature. After washes, membranes were imaged in the LI-COR Odyssey® Fc Imaging System. […]

[10] = target: T1, ITK; test: ITK occupancy in patients at steady state; assay type: in vivo
[11] = test system: imiquimod-induced psoriasis; test: Imiquimod-induced model of psoriasis; settings: in vivo
[12] = PTCL-NOS patient, within 8-15 days

remaining activity at 1 µM [3]: 89%
inhibition at 1 µM [4]: > 95%
Tmax ([5]; male, C57Bl/6, mouse, plasma, single 50 mg/kg PO): 0.5 h
half-life ([5]; male, C57Bl/6, mouse, plasma, single 50 mg/kg PO, read-out: half-life in circulation (converted)): 2.4 h
oral bioavailability ([5]; mouse, in vivo, po): orally bioavailable
decrease of plasma concentration ([5]; single 50 mg/kg PO, over first 8 h): 10 fold
persistence of blockade of tracer binding to ITK ([7]; after jump dilution): greater than 24 h
reversibility of ITK inhibition on dilution [7]: did not dissociate upon dilution
reversibility of ITK inhibition on dilution ([7]; listed as CP-818): irreversible
change of IC50 at Cys442Ala ITK compared to wild-type [8]: > 100 fold
receptor occupancy at 400 mg ([10]; human, 400 mg BID and 600 mg BID, read-out: steady state trough ITK occupancy): ~90%
steady state peak ITK occupancy, mean ([10]; patients, 100-600 mg BID): at least 90%
SMILES: C=CC(=O)N1CCCN(C(=O)c2cc(Sc3cnc(NC(=O)C4CC4)s3)c(C)cc2OC)C[C@H]1C [CPI-818]
Interferon gamma (IFNg) production [1]: only inhibited at high concentrations
Th2 cytokine production ([1]; CD4+ T cells): dose-dependent inhibition of Th2 cytokine
dose with best anti-tumor response ([2]; 100, 200, 400, 600 mg BID evaluated): best response occurred at the dose of 200 mg BID
duration of complete remission ([2]; Example 2, 200 mg BID): 25 months
response of patient with peripheral T-cell lymphoma NOS ([2]; Example 2, 200 mg BID): complete remission
response of patient with PTCL-NOS ([2]; FIG. 23, cycle 17, after 1 year of treatment): complete response
duration of complete response ([2]; FIG. 23 patient): 19 months
platelets (PLT) and lactate dehydrogenase (LDH) [2, 12]: improvement
subcutaneous (SQ) tumor [2, 12]: dramatic reduction
number of kinases inhibited ≥65% [6]: eight
phosphorylation of PLCγ1 [9]: dose-dependently inhibited
dermal inflammation [11]: significantly reduced
skin thickening [11]: significantly reduced
